Assay results published in article PMC6921279 (Frontiers in Endocrinology, 2019).

Columns and labels:
[1] = test system: CRF1R-mediated ERK1/2 phosphorylation; assay: Modulation of CRF-stimulated ERK1/2 phosphorylation in COS-7 cells expressing HA-CRF1R; type: cell-based
Protocol: (§1) Plasmid pRK5 encoding the carboxyl terminus of βARK that contains its βγ-binding domain (ct-βARK) was kindly provided by Dr. W. Koch (Center for Translational Medicine, Temple University, Philadelphia, PA), which is a scavenger for G protein βγ subunits ([25]). […] Plasmid pUSEamp encoding dominant-negative Akt-K179M (dn-Akt) was from Upstate Biotechnology (Lake Placid, NY).
(§2) COS-7 cells (from the American Type Culture Collection) were cultured at 37°C in a humidified atmosphere of 95% air, 5% CO2, in DMEM supplemented with 10% FBS, 100 μg/ml streptomycin, and 100 units/ml penicillin (COS-7 growth medium). Transient transfections were performed using LipofectAMINE (Life Technologies: Gaithersburg, MD) as described previously ([27]). Cells were seeded at 8 × 10^5 cells/10-cm dish in COS-7 medium and cultured for 3 days before transfection. COS-7 cells were transfected in 5 ml/dish OptiMEM containing 10 μg/ml LipofectAMINE with empty vector, pcDNA3 encoding the HA-CRF1R or the HA-CRF1R-Δ386 mutant. […] After replacing the transfection medium with fresh growth medium, transfected COS-7 cells were cultured for 1 day. Subsequently, cells were re-seeded in 6-well plates and cultured for an additional day prior to the experiment.
(§3) The protocols for measuring total and phosphorylated ERK1/2, c-Src, PYK2, Akt, and EGFR have been previously published ([28], [29]). After cells were cultured to 60–70% confluence, they were serum-deprived for 24 h. On the day of the experiment, cells were treated with the indicated ligands and inhibitors. […] After treatment, cells were placed on ice, the media was aspirated, and the cells were washed twice with ice-cold PBS and lysed in 100 μl of Laemmli sample buffer 1X. The lysates were briefly sonicated, heated at 95°C for 5 min, and centrifuged for 5 min at 14,000 rpm. Resulting supernatants were loaded in separate lanes of a 10% SDS-PAGE gels and electrophoresed. Next, Western transfer on to PDVF membranes was completed. The Western blots were then probed with specific antibodies targeting phosphorylated and non-phosphorylated forms of ERK1/2, c-Src, PYK2, Akt, and EGFR for primary immunodetection. After blots were probed with horseradish peroxidase-conjugated secondary antibody, protein bands were visualized with enhanced chemiluminescence ECL reagent (Amersham Pharmacia Biotech, Piscataway, NJ or Pierce Biotechnology, Rockford, IL) and scanned using the GS-800 Calibrated Imaging Densitometer (Bio-Rad). The labeled bands were quantified using the Quantity One 4.6.3 software program (Bio-Rad).
(§4) Total cell lysates were separated by SDS-PAGE and analyzed by immunoblotting with anti-p-ERK1/2 Thr^202/Tyr^204, as described in Materials and Methods. ERK1/2 phosphorylation was quantitated by densitometry, and mean values were plotted from five independent experiments.
(§5) Total cell lysates were separated by SDS-PAGE and analyzed by immunoblotting with anti-p-ERK1/2 Thr^202/Tyr^204 (A–D) or anti-p-EGFR Tyr^1068 (E), as described in Materials and Methods. ERK1/2 and EGFR phosphorylation were quantitated by densitometry, and mean values were plotted from three to five independent experiments.
Total cell lysates were separated by SDS-PAGE and analyzed by immunoblotting with anti-p-ERK1/2 Thr^202/Tyr^204, as described in Materials and Methods. ERK1/2 phosphorylation was quantitated by densitometry, and mean values were plotted from three to five independent experiments.

[2] = test system: endogenous EGFR in COS-7 cells; assay: EGF-stimulated ERK1/2 phosphorylation in COS-7 cells expressing HA-CRF1R; type: cell-based
Protocol: as §2, with “Subsequently, cells were re-seeded in 6-well plates and cultured for an additional day prior to the experiment.” left out
(§6) The protocols for measuring total and phosphorylated ERK1/2, c-Src, PYK2, Akt, and EGFR have been previously published ([28], [29]). […] The labeled bands were quantified using the Quantity One 4.6.3 software program (Bio-Rad).
as §5

[3] = target: HA-epitope tagged human CRF1 receptor (human); assay: co-IP; HA-CRF1R immunoprecipitated with anti-HA monoclonal antibody (HA.11) and protein A/G PLUS-Agarose from 1% Nonidet P-40 lysates (50 mM Tris-HCl, 150 mM NaCl, pH 7.4) of transfected COS-7 cells, serum-deprived 24 h, untreated or treated with 100 nM CRF for 10 min at 37°C; blots probed for EGFR and HA, stripped and reprobed for c-Src; densitometry
[4] = test system: CRF1R-mediated Akt phosphorylation; assay: CRF-induced Akt phosphorylation at Ser473 in COS-7 cells expressing HA-CRF1R; type: cell-based, human; settings: 100 nM CRF, 5 min
Protocol: as §1, §2
as §3, with “After blots were probed with horseradish peroxidase-conjugated secondary antibody, protein bands were visualized with enhanced chemiluminescence ECL reagent (Amersham Pharmacia Biotech, Piscataway, NJ or Pierce Biotechnology, Rockford, IL) and scanned using the GS-800 Calibrated Imaging Densitometer (Bio-Rad).” left out
Figure 7 CRF mediates Akt activation. […] Total cell lysates were separated by SDS-PAGE and analyzed by immunoblotting with anti-p-Akt Ser^473, as described in Materials and Methods. Akt phosphorylation was quantitated by densitometry, and mean values were plotted from three to five independent experiments. […]

[5] = test system: PMA-stimulated ERK1/2 phosphorylation; assay: Modulation of PMA-stimulated ERK1/2 phosphorylation in COS-7 cells; type: cell-based; settings: GM6001 10 μM, 30 min pretreatment; 100 nM PMA, 15 min
Protocol: COS-7 cells (from the American Type Culture Collection) were cultured at 37°C in a humidified atmosphere of 95% air, 5% CO2, in DMEM supplemented with 10% FBS, 100 μg/ml streptomycin, and 100 units/ml penicillin (COS-7 growth medium). Transient transfections were performed using LipofectAMINE (Life Technologies: Gaithersburg, MD) as described previously ([27]). Cells were seeded at 8 × 10^5 cells/10-cm dish in COS-7 medium and cultured for 3 days before transfection. COS-7 cells were transfected in 5 ml/dish OptiMEM containing 10 μg/ml LipofectAMINE with empty vector, pcDNA3 encoding the HA-CRF1R or the HA-CRF1R-Δ386 mutant. […]
as §6
as §4, with “Figure 2 CRF-induced ERK1/2 phosphorylation is dependent on Gi protein. […] Total” for “Total”, “experiments. […]” for “experiments.”
Total cell lysates were separated by SDS-PAGE and analyzed by immunoblotting with anti-p-ERK1/2 Thr202/Tyr204, as described in materials and methods. […]

[6] = test system: EGF-stimulated ERK1/2 phosphorylation; assay: Modulation of EGF-stimulated ERK1/2 phosphorylation in COS-7 cells; type: cell-based; settings: GM6001 10 μM, 30 min pretreatment; 10 ng/ml EGF, 10 min
Protocol: COS-7 cells (from the American Type Culture Collection) were cultured at 37°C in a humidified atmosphere of 95% air, 5% CO2, in DMEM supplemented with 10% FBS, 100 μg/ml streptomycin, and 100 units/ml penicillin (COS-7 growth medium). Transient transfections were performed using LipofectAMINE (Life Technologies: Gaithersburg, MD) as described previously ([27]). Cells were seeded at 8 × 10^5 cells/10-cm dish in COS-7 medium and cultured for 3 days before transfection. COS-7 cells were transfected in 5 ml/dish OptiMEM containing 10 μg/ml LipofectAMINE with empty vector, pcDNA3 encoding the HA-CRF1R or the HA-CRF1R-Δ386 mutant. […] After replacing the transfection medium with fresh growth medium, transfected COS-7 cells were cultured for 1 day. […]
as §6
as §5, with “Figure 3 Involvement of EGFR transactivation in CRF-stimulated ERK1/2 phosphorylation. […] Total” for “Total”, “experiments. […]” for “experiments.”

[7] = target: epidermal growth factor receptor (African green monkey (endogenous in COS-7))

Chain of epidermal growth factor (P01133 971-1023): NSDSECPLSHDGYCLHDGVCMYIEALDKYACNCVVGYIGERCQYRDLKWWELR

dn-Akt: plasmid pUSEamp encoding dominant-negative Akt-K179M
effect on ERK1/2 activation by CRF ([1]; dn-Akt (K179M) co-transfection, 100 nM CRF): had no significant effect on ERK1/2 activation after stimulation with CRF

EGF: epidermal growth factor
persistence of ERK1/2 phosphorylation ([2]; 10 ng/ml EGF): at least 30 min
EC50 for EGF-induced ERK1/2 phosphorylation ([2]; EGF 0–100 ng/ml, 10 min): 0.23 ng/mL

c-Src (enzyme)
fold increase of co-precipitated Src over control (100 nM CRF, 10 min, against unstimulated cells) [3]: 8 fold

COc1cc2ncnc(Nc3cccc(Cl)c3)c2cc1OC [AG1478]
effect on CRF-stimulated ERK1/2 phosphorylation ([1]; AG1478 100 nM, 100 nM CRF, 5 min): abolished phosphorylation of ERK1/2
IC50 ([1]; COS-7, AG1478 0–1,000 nM, 30 min pretreatment, 100 nM CRF, 5 min, read-out: IC50, inhibition of CRF-stimulated ERK1/2 phosphorylation): 10 nM
inhibition at 0.1 µM ([1]; Homo sapiens, COS-7, 100 nM AG1478, 30 min pretreatment, 100 nM CRF, 5 min, read-out: inhibition of CRF-induced maximal ERK1/2 phosphorylation): ~80%
decrease of CRF-stimulated Akt phosphorylation ([4]; AG1478 100 nM): 25%

CNC(=O)[C@H](Cc1ccccc1)NC(=O)[C@H](CC(C)C)[C@H](CSc1cccs1)C(=O)NO [batimastat]
effect on basal and CRF-stimulated ERK1/2 phosphorylation ([1]; batimastat 5 μM, 30 min pretreatment, 100 nM CRF, 5 min): not altered

epidermal growth factor receptor
fold increase of co-precipitated EGFR over control (100 nM CRF, 10 min, against unstimulated cells) [3]: 2.5 fold

O=c1cc(N2CCOCC2)oc2c(-c3ccccc3)cccc12 [LY294002]
effect on CRF-stimulated phosphorylation of ERK1/2 ([1]; LY294002 pretreatment (discussion)): inhibited CRF-stimulated phosphorylation of ERK1/2 and Akt
effect on CRF1R-mediated Akt signaling activation ([4]; LY294002 10 μM, 30 min pretreatment): abolished CRF1R-mediated Akt signaling activation

Nc1ncnc2c1ncn2[C@@H]1O[C@@H]2COP(O)(=S)O[C@H]2[C@H]1O (some centres unmarked) [Rp-cAMP]
effect on CRF-stimulated ERK1/2 activation ([1]; Rp-cAMP 0–100 μM, 30 min pretreatment, 100 nM CRF, 5 min): the magnitude of CRF1R-mediated activation of ERK1/2 was similar

CNC(=O)[C@H](Cc1c[nH]c2ccccc12)NC(=O)[C@@H](CC(=O)NO)CC(C)C [GM6001]
effect on basal and CRF-stimulated ERK1/2 phosphorylation ([1]; GM6001 0–20 μM, 30 min pretreatment, 100 nM CRF, 5 min): not altered
effect on PMA-induced ERK1/2 phosphorylation [5]: significantly attenuated ERK1/2 phosphorylation induced by PMA
effect on EGF-induced ERK1/2 phosphorylation [6]: significantly attenuated ERK1/2 phosphorylation induced by PMA but not EGF

epidermal growth factor (from UniProt P01133 971-1023) (ligand)
EC50 of EGF-induced ERK1/2 phosphorylation, COS-7 cells (endogenous EGFR), EGF 0-100 ng/ml for 10 min, immunoblot densitometry [7]: 0.23 ng/mL
